The text below walks through data of patent US9511086B2, “Method for improving immune system function by administering agents that inhibit DNA-dependent protein kinase-directed apoptosis” (The Board of Trustees of the Leland Stanford Junior …, priority 2010, dated 2016).

One experiment relates to Bim. The experiment is described as follows: Bim protein level by flow cytometry in RA T cells. It is filed as cell-based, human. The note with it: treated vs untreated. On the procedure: (§1) FIG. 8. The DNA-PKcs-JNK pathway upregulates the apoptogenic molecules Bim and Bmf in RA CD4+ T cells. CD4+CD45RO− T cells were isolated from the peripheral blood of 6 controls and 6 RA patients. Cells were maintained in culture without mitogenic stimulation for 72 h. (A) Puma, Noxa, Bim and Bmf transcript levels in freshly isolated cells were quantified by qPCR. Data are presented as mean±SEM. (B) Flow cytometry analysis of Bim levels in control and RA naïve T cells after 72 h of culture. Expression of Bim protein in n=5 RA and n=5 controls samples is given as MFI of Alexa Fluor 488 Bim. (C) Flow cytometry analysis of Bmf levels in control and RA naïve T cells. Expression of Bmf protein in n=6 RA and n=4 controls samples is given as MFI of PE Bmf. (D) Bcl-2 protein levels were analyzed by flow cytometry. Expression of Bcl-2 protein in n=6 RA and n=6 control samples is given as MFI of FITC Bcl-2. (E) Bim protein level in the absence and presence of the DNA-PKcs inhibitor were analyzed by flow cytometry in samples from 4 RA patients. […]
(§2) For intracellular staining, cells were fixed directly with 1.5% formaldehyde for 10 min at room temperature and resuspended in 90% methanol. […] Proteins or 8-oxoguanine expression were detected by an LSRII flow cytometer (BD Biosciences). Data were analyzed by FlowJo software (Tree Star Inc., Ashland, Oreg.). […]

For the next experiment, the system named is Bmf. The experiment is described as follows: Bmf protein level by flow cytometry in RA T cells. It is filed as cell-based, human. To be noted: treated vs untreated. On the procedure:
as §1, §2
A general note: In flow cytometry, cells or beads pass a laser one at a time.

The next experiment concerns the target ATM (Homo sapiens, UniProt Q13315). To be noted: concentrations of up to 100 μM; cited from earlier work.
Another experiment has as its system protein kinase C. To be noted: concentrations of up to 100 μM; cited from earlier work.
The next experiment concerns the target aurora-related kinase 2 (Homo sapiens, UniProt Q96GD4). The note with it: concentrations of up to 100 μM; cited from earlier work.
Another experiment has as its target ATR (Homo sapiens, UniProt Q13535). To be noted: concentrations of up to 100 μM; cited from earlier work.
Experiment [1] addresses T1, checkpoint protein kinase 1 (Homo sapiens, UniProt O14757).
T1 sequence (O14757 1-476): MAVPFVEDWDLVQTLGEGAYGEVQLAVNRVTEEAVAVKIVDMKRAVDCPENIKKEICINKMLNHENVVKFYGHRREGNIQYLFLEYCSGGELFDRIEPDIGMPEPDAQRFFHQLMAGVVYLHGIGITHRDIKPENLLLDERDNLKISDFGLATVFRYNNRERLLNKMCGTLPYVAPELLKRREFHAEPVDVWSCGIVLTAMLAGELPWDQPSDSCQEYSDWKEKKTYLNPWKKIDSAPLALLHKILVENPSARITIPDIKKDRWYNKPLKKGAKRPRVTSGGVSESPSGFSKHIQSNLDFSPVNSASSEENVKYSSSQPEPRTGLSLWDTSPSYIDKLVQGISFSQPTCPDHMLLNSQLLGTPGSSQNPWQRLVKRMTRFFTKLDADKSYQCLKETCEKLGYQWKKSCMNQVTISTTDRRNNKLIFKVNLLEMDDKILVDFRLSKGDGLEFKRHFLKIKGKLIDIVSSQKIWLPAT
To be noted: concentrations of up to 100 μM; cited from earlier work.

The next experiment deals with casein kinase 1. To be noted: concentrations of up to 100 μM; cited from earlier work.
Experiment [2] addresses Rous sarcoma tyrosine kinase (Homo sapiens, UniProt P12931). The note with it: concentrations of up to 100 μM; cited from earlier work.
Another experiment has as its system protein kinase A. The note with it: concentrations of up to 100 μM; cited from earlier work.
For experiment [3], the target named is cyclin-dependent kinase 2 (Homo sapiens, UniProt P24941). The note with it: concentrations of up to 100 μM; cited from earlier work.

ATM, sequence (Q13315 whole entry, species assumed): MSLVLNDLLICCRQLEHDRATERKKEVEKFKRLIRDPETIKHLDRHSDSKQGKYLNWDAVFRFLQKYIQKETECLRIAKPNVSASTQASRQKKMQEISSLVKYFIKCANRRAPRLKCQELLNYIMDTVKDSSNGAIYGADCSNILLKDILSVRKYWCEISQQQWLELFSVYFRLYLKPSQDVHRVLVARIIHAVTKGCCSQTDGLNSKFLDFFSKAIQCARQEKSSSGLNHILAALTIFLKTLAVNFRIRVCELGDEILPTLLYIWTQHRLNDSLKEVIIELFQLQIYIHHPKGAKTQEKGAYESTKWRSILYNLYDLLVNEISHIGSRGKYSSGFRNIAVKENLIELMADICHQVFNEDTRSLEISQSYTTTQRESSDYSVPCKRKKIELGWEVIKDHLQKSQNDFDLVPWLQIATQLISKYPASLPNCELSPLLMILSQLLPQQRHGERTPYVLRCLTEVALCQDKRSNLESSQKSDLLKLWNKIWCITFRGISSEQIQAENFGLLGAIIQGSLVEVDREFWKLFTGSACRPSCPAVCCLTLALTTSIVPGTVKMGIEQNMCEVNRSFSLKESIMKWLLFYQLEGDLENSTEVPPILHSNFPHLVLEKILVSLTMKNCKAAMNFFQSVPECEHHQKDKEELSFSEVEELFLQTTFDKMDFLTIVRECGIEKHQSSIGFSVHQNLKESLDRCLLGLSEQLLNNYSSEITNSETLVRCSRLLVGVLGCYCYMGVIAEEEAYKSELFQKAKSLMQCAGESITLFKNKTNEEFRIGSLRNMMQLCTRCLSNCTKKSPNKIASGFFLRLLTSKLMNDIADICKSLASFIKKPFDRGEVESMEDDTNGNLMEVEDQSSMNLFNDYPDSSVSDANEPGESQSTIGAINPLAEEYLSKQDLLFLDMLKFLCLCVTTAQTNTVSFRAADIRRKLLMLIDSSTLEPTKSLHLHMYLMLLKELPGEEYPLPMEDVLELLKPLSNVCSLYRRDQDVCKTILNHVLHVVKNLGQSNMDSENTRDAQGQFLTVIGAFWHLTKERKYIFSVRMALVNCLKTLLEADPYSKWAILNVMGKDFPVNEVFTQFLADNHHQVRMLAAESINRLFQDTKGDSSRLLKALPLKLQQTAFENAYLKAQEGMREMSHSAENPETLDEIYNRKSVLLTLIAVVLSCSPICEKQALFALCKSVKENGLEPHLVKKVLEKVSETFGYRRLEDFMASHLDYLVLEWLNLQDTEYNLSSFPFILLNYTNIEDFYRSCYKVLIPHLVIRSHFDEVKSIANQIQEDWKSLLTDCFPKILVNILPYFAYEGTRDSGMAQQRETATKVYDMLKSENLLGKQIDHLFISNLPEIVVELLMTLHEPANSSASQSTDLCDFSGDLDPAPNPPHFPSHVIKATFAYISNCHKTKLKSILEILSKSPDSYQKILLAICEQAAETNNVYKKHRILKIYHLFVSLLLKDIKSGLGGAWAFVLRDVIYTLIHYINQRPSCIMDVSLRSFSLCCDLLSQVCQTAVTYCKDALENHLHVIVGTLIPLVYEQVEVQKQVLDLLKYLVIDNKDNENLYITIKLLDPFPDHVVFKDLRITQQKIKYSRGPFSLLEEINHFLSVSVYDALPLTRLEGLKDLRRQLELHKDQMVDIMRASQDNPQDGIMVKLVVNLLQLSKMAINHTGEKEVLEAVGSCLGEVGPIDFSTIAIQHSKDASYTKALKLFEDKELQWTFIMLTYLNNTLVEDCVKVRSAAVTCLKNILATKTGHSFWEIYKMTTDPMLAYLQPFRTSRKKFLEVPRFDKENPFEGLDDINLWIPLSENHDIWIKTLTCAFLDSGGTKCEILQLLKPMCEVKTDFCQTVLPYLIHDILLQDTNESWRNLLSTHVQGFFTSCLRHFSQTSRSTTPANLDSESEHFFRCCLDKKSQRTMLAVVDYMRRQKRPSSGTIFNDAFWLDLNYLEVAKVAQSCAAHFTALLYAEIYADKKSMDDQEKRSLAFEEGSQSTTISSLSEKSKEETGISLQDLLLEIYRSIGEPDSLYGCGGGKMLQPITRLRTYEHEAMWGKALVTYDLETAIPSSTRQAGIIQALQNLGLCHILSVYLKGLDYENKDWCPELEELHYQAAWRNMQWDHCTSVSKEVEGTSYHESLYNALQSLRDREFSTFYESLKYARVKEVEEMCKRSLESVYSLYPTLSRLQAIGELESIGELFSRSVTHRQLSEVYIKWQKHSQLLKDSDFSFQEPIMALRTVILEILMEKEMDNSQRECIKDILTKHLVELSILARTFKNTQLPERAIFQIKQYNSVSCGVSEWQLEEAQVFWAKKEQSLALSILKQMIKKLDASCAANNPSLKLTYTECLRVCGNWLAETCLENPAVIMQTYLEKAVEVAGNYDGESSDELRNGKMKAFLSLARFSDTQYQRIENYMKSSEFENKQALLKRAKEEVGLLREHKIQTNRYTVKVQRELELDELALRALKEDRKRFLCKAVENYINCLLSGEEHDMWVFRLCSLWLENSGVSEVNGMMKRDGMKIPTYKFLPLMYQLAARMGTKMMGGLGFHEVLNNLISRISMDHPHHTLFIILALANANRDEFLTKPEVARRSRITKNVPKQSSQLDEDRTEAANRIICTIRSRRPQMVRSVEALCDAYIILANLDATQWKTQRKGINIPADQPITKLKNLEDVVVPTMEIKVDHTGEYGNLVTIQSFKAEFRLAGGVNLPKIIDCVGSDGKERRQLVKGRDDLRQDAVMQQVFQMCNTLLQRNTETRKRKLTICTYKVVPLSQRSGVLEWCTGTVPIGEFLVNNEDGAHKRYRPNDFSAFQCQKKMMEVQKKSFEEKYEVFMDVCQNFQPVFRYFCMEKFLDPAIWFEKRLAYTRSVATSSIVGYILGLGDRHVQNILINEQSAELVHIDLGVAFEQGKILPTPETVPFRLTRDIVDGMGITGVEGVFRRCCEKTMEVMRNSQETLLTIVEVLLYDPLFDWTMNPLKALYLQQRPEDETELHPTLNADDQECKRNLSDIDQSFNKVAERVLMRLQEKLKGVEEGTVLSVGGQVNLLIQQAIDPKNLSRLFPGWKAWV
aurora-related kinase 2, sequence (Q96GD4 whole entry): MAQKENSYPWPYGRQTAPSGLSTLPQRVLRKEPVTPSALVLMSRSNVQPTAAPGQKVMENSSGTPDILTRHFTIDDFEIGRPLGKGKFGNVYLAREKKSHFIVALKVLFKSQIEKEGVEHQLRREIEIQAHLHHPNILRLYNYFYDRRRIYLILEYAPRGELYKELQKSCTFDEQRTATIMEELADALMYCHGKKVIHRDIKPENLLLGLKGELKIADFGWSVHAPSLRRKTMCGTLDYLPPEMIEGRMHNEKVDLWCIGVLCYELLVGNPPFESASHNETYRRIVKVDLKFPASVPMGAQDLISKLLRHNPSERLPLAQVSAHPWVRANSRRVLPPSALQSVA
Rous sarcoma tyrosine kinase, sequence (P12931 whole entry): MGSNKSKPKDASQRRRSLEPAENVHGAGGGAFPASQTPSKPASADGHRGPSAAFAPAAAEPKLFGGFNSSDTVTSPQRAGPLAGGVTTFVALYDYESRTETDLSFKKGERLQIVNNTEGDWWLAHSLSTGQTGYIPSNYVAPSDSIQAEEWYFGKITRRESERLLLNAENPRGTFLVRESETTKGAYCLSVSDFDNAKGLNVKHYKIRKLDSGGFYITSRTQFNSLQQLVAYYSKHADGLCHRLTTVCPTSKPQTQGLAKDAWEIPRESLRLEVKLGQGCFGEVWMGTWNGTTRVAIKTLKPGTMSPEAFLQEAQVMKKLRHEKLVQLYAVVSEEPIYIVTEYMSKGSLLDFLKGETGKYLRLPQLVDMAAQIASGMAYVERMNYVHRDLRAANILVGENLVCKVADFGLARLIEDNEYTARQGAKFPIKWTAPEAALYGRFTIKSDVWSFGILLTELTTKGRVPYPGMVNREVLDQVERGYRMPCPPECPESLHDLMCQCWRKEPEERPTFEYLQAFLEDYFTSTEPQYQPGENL

Take `CC(=O)c1ccc(N2CCOCC2)cc1O` [IC86621, 1-(2-hydroxy-4-morpholin-4-ylphenyl)ethanone]: the “intracellular Bim levels” value in the experiment with Bim is “reduced”. In addition, in the experiment on Bmf, the “intracellular Bmf levels” value is “reduced”. For the same molecule, the “activity against ATM” value on ATM was “neither activity”. For the same molecule, the “activity against protein kinase C” value in the experiment with protein kinase C is recorded as “neither activity”. For the same molecule, at aurora-related kinase 2, the “activity against aurora-related kinase 2” value is reported as “neither activity”. In addition, the “activity against ATR” value at ATR was “neither activity”. In addition, the “activity against checkpoint protein kinase 1” value in experiment [1] is “neither activity”. Further, the “activity against casein kinase 1” value with casein kinase 1 is listed as “neither activity”. In addition, the “activity against Rous sarcoma tyrosine kinase” value in [2] is given as “neither activity”. For the same molecule, the “activity against protein kinase A” value in the experiment on protein kinase A is “neither activity”. Further, in experiment [3], the “activity against cyclin-dependent kinase 2” value is “neither activity”.
